Strand notation (5' to 3'): a small letter for the sugar, then the base; units joined by * are phosphorothioate-linked, units joined directly phosphodiester-linked; [ ] holds rarer units or linkages, { } end groups; capitals alone tell only the bases. k = constrained ethyl (cEt); [5mC] = 5-methylcytosine; d = 2'-deoxy (DNA)
Test system: Yap1 mRNA
Test: Antisense inhibition of human Yap1 in A-431 cells by cEt gapmers, single dose (Example 3, RTS36584)
Type: cell-based
Conditions: Table 8; A-431 cells, 5,000 cells per well, free uptake, 2,000 nM, approximately 48 hours; RTS36584; normalized to RIBOGREEN; Yap1 mRNA relative to untreated control cells
In short: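 Read-out is Yap1 mRNA as percent of untreated control, by quantitative RT-PCR normalized to total RNA (RiboGreen). Cells (A-431) received 2,000 nM of 3-10-3 cEt phosphorothioate gapmer via free uptake for roughly 48 hours.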

Substance | YAP1 (% UTC)
958368 (antisense kA*kT*k[5mC]*dT*dA*dG*d[5mC]*dT*dT*dG*dG*dT*dG*kG*k[5mC]*kA) [Compound 958368] | 11
958382 (antisense kT*kT*k[5mC]*d[5mC]*dT*d[5mC]*dT*dG*d[5mC]*dG*d[5mC]*dG*d[5mC]*k[5mC]*k[5mC]*kG) [Compound 958382] | 111
958407 (antisense kA*kA*kT*dA*d[5mC]*dT*dG*dA*dT*d[5mC]*dT*dG*d[5mC]*kA*kG*k[5mC]) [Compound 958407] | 35

Same assay, conditions: Table 9; A-431 cells, 5,000 cells per well, free uptake, 2,000 nM, approximately 48 hours; RTS36584; normalized to RIBOGREEN; Yap1 mRNA relative to untreated control cells

Substance | YAP1 (% UTC)
958676 (kG*kA*kA*d[5mC]*dT*dT*dA*dG*dT*dT*d[5mC]*d[5mC]*d[5mC]*kT*kA*kT; antisense) [Compound 958676] | 34

Same assay, conditions: Table 10; A-431 cells, 5,000 cells per well, free uptake, 2,000 nM oligonucleotide, approx. 48 hours; primer probe set RTS36584; Yap1 mRNA normalized to RIBOGREEN, percent of untreated control

Substance | YAP1 (% UTC)
958462 (antisense kA*k[5mC]*kT*dG*dG*d[5mC]*dT*dA*d[5mC]*dG*d[5mC]*dA*dG*kG*kG*k[5mC]) [Compound 958462] | 46
958677 (kA*kG*kA*dA*d[5mC]*dT*dT*dA*dG*dT*dT*d[5mC]*d[5mC]*k[5mC]*kT*kA; antisense) [Compound 958677] | 51
958792 (antisense kG*k[5mC]*k[5mC]*dA*dA*dT*dG*dG*dA*dG*dT*d[5mC]*dA*k[5mC]*k[5mC]*kA) [Compound 958792] | 46

Same assay, conditions: Table 11; A-431 cells, 5,000 cells per well, free uptake, 2,000 nM oligonucleotide, approx. 48 hours; primer probe set RTS36584; Yap1 mRNA normalized to RIBOGREEN, percent of untreated control

Substance | YAP1 (% UTC)
958553 (k[5mC]*k[5mC]*kA*dT*dT*dA*dT*dT*dA*d[5mC]*dT*d[5mC]*d[5mC]*kT*kG*kT; antisense) [Compound 958553] | 1
958568 (kT*kA*kT*dG*dA*dG*dT*dG*dA*dT*d[5mC]*dA*dA*k[5mC]*k[5mC]*kT; antisense) [Compound 958568] | 5

Same assay, conditions: Table 12; A-431 cells, 5,000 cells per well, free uptake, 2,000 nM modified oligonucleotide, approx. 48 hours; RTS36584; normalized to RIBOGREEN; Yap1 mRNA relative to untreated control cells

Substance | YAP1 (% UTC)
958719 (antisense kG*kT*kA*d[5mC]*dA*dT*dA*dA*dT*dG*dG*dG*d[5mC]*kT*kA*kA) [Compound 958719] | 49

Same assay, conditions: Table 13; A-431 cells, 5,000 cells per well, free uptake, 2,000 nM modified oligonucleotide, approx. 48 hours; RTS36584; normalized to RIBOGREEN; Yap1 mRNA relative to untreated control cells

Substance | YAP1 (% UTC)
958455 (antisense kA*kG*kA*dG*dG*dA*dA*dT*dG*dA*dG*d[5mC]*dT*k[5mC]*kG*kA) [Compound 958455] | 43
958660 (k[5mC]*k[5mC]*k[5mC]*dA*d[5mC]*dT*dG*dG*dG*dT*dT*dT*dG*kT*k[5mC]*k[5mC]; antisense) [Compound 958660] | 106
958640 (antisense kT*kA*kG*dA*dT*dA*dA*d[5mC]*dT*dG*dT*d[5mC]*dT*k[5mC]*k[5mC]*k[5mC]) [Compound 958640] | 13

Same assay, conditions: Table 26; Yap1 mRNA by 3-10-3 cEt gapmers targeting SEQ ID NO.: 1, and 2; percent of untreated control

Substance | YAP1 (% UTC)
1075596 (antisense kA*kT*kA*dT*dA*dA*dT*dA*d[5mC]*dA*dT*d[5mC]*dT*k[5mC]*k[5mC]*k[5mC]) [compound 1075596] | 91
1075308 (antisense kA*kA*kT*dT*dA*dA*dA*d[5mC]*dG*dA*dA*dA*d[5mC]*kA*k[5mC]*kG) [compound 1075308] | 97
1075660 (antisense k[5mC]*kA*kA*dA*dG*dT*dA*dA*dA*dA*dA*dA*d[5mC]*kG*kG*kT) [compound 1075660] | 72
1074316 (antisense kG*kG*kA*dT*dT*dG*dA*dT*dA*dT*dT*d[5mC]*d[5mC]*kG*k[5mC]*kA) [compound 1074316] | 33
1075564 (kA*kT*kA*dT*dA*dA*d[5mC]*dA*dG*dG*d[5mC]*d[5mC]*dA*k[5mC]*k[5mC]*kA; antisense) [compound 1075564] | 81
1074988 (antisense kA*k[5mC]*k[5mC]*dG*d[5mC]*dG*dG*d[5mC]*dG*dG*dA*dG*dT*kG*kG*kA) [compound 1074988] | 94

Same assay, conditions: Table 27; Yap1 mRNA by 3-10-3 cEt gapmers targeting SEQ ID NO.: 1, and 2; percent of untreated control

Substance | YAP1 (% UTC)
1074669 (antisense kA*kT*k[5mC]*d[5mC]*d[5mC]*dA*dA*d[5mC]*dA*dA*d[5mC]*dA*dT*kG*k[5mC]*kT) [compound 1074669] | 13
1076141 (kT*kA*k[5mC]*dG*dA*dA*dA*dA*dA*dA*dG*d[5mC]*d[5mC]*kA*kA*k[5mC]; antisense) [compound 1076141] | 29
1075885 (antisense k[5mC]*kA*kT*dT*dA*dG*dT*dA*dA*dT*dG*dA*d[5mC]*kT*kA*kA) [compound 1075885] | 112
1074253 (antisense kT*k[5mC]*kT*dG*dG*dG*dA*d[5mC]*dA*dG*d[5mC]*dA*dT*kG*kG*k[5mC]) [compound 1074253] | 11
1075309 (antisense kT*kA*kA*dT*dT*dA*dA*dA*d[5mC]*dG*dA*dA*dA*k[5mC]*kA*k[5mC]) [compound 1075309] | 110

Same assay, conditions: Table 28; Yap1 mRNA as percent of untreated control; 3-10-3 cEt gapmers targeting SEQ ID NO.: 1, and 2

Substance | YAP1 (% UTC)
1076206 (k[5mC]*kA*kA*dT*dA*dA*dA*d[5mC]*dT*dT*dA*d[5mC]*d[5mC]*k[5mC]*kT*kT; antisense) [compound 1076206] | 55
1076110 (k[5mC]*kT*kT*dT*dA*d[5mC]*d[5mC]*dT*dA*dA*dA*dT*dG*kT*kT*kG; antisense) [compound 1076110] | 53
1074670 (antisense kA*kA*kG*dT*dA*dG*d[5mC]*dT*dT*dT*dG*dA*dT*k[5mC]*kT*kT) [compound 1074670] | 49

Same assay, conditions: Table 29; Yap1 mRNA as percent of untreated control; 3-10-3 cEt gapmers targeting SEQ ID NO.: 1, and 2

Substance | YAP1 (% UTC)
1076175 (k[5mC]*kA*kA*dT*dA*dG*dG*dT*dA*dA*d[5mC]*dA*dG*kG*kT*kA; antisense) [compound 1076175] | 15
1075439 (antisense kA*kA*kT*dT*dA*dG*dA*dG*dA*dT*dA*dT*dG*kG*kA*k[5mC]) [compound 1075439] | 77

Same assay, conditions: Table 34; Yap1 mRNA as percent of untreated control; 3-10-3 cEt gapmers targeting SEQ ID NO: 1 and 2; single dose

Substance | YAP1 (% UTC)
1076276 (k[5mC]*kT*kT*dT*dA*dG*dG*dA*dG*dT*d[5mC]*dA*dG*kA*kA*k[5mC]; antisense) [compound 1076276] | 59
1075092 (kT*kT*kA*dA*dA*dA*d[5mC]*dA*dA*d[5mC]*dG*dA*dA*kT*kG*kA; antisense) [compound 1075092] | 63
1074228 (antisense kG*kA*k[5mC]*dT*dG*dT*d[5mC]*dG*dA*dA*dG*dA*dT*kG*k[5mC]*kT) [compound 1074228] | 17
1074132 (k[5mC]*kG*kG*d[5mC]*d[5mC]*d[5mC]*d[5mC]*dG*d[5mC]*dA*dT*d[5mC]*d[5mC]*k[5mC]*k[5mC]*k[5mC]; antisense) [compound 1074132] | 96
1075988 (kA*kA*kT*dT*dA*dA*dG*d[5mC]*dT*dT*d[5mC]*dT*d[5mC]*kT*kA*kG; antisense) [compound 1075988] | 90
1076244 (k[5mC]*kA*kA*dT*dT*dT*dG*dG*dG*dA*dT*dA*dT*kT*k[5mC]*kG; antisense) [compound 1076244] | 14
1074164 (k[5mC]*k[5mC]*kA*dG*dG*d[5mC]*dG*dA*dG*d[5mC]*dG*dA*dG*kG*kG*k[5mC]; antisense) [compound 1074164] | 135

Same assay, conditions: Table 35; Yap1 mRNA as percent of untreated control; 3-10-3 cEt gapmers targeting SEQ ID NO: 1 and 2; single dose

Substance | YAP1 (% UTC)
1075669 (antisense kA*kA*kA*dT*dT*dA*dT*dT*dG*dG*dT*dG*dA*k[5mC]*kA*k[5mC]) [compound 1075669] | 70
1074901 (antisense kT*kA*kT*dT*dA*dA*d[5mC]*dT*dT*dT*dT*dG*dG*kG*k[5mC]*kA) [compound 1074901] | 61
1076309 (kG*kA*kT*dA*dA*d[5mC]*dT*dT*dT*d[5mC]*d[5mC]*dA*d[5mC]*kA*kA*kT; antisense) [compound 1076309] | 9
